Results reported in DBAASP.
Converted amounts (≈) assume the structure as drawn. Each block holds one compound with its values, some of them ahead of it.

Experiments:
Experiment in all cases: ≥ marks a high value that may be exact or a test limit, other limits are often not marked, values filed in µg/mL are converted to µM
[1] = tested on: Escherichia coli NCTC 10418
[2] = tested on: Staphylococcus aureus NCTC 10788
Bacillus cereus = tested on: Bacillus cereus
Escherichia coli = tested on: Escherichia coli
Staphylococcus aureus = tested on: Staphylococcus aureus
[3] = tested on: Candida albicans ATCC 2002
[4] = tested on: Escherichia coli ATCC 25922
[5] = tested on: Pseudomonas aeruginosa CMCCB 10104
[6] = tested on: Staphylococcus aureus ATCC 25923
[7] = tested on: Enterococcus faecalis ATCC 29212
Escherichia coli UB1005 = tested on: Escherichia coli UB1005
[8] = tested on: Pseudomonas aeruginosa ATCC 27853
[9] = tested on: Salmonella enterica subsp. enterica serovar Pullorum C79-13
[10] = tested on: Salmonella enterica subsp. enterica serovar Typhimurium ATCC 14028
[11] = tested on: Salmonella enterica subsp. enterica serovar Typhimurium C77-31
[12] = tested on: Staphylococcus epidermidis ATCC 12228
Bacillus subtilis 168 = tested on: Bacillus subtilis 168
[13] = tested on: Staphylococcus aureus ATCC 29213

MIC [1]: ≥ 110 µM
MIC [2]: ≥ 55 µM
SMILES: CC[C@H](C)[C@H](NC(=O)CNC(=O)[C@H](CO)NC(=O)[C@H](CC(C)C)NC(=O)[C@H](Cc1cnc[nH]1)NC(=O)[C@@H]1CCCN1C(=O)[C@H](CC(C)C)NC(=O)[C@H](CC(C)C)NC(=O)[C@H](CCC(=O)O)NC(=O)[C@H](CCCCN)NC(=O)[C@@H](NC(=O)[C@@H](N)Cc1ccccc1)[C@@H](C)CC)C(=O)N[C@H](C(=O)N[C@@H](CC(=O)O)C(=O)N[C@@H](CO)C(=O)N[C@H](C(=O)N[C@@H](C)C(=O)N[C@@H](CC(N)=O)C(=O)N[C@@H](C)C(=O)N[C@H](C(=O)N[C@@H](CCCCN)C(N)=O)[C@@H](C)CC)C(C)C)[C@@H](C)CC [FIKELLPHLSGIIDSVANAIK]

MIC (Bacillus cereus): ≥ 114 µM
MIC (Escherichia coli): 114 µM (≈ 256 µg/mL)
MIC (Staphylococcus aureus): > 114 µM
SMILES: CC(C)C[C@H](NC(=O)[C@@H](N)Cc1ccccc1)C(=O)NCC(=O)N[C@H](C(=O)N[C@H](C(=O)N[C@@H](Cc1ccccc1)C(=O)N[C@@H](CCCCN)C(=O)N[C@@H](CCCCN)C(=O)N[C@@H](C)C(=O)N[C@@H](CO)C(=O)N[C@@H](CCCCN)C(=O)N[C@H](C(=O)N[C@@H](Cc1ccccc1)C(=O)N1CCC[C@H]1C(=O)N[C@@H](C)C(=O)N[C@H](C(=O)N[C@@H](Cc1ccccc1)C(=O)N[C@@H](CCCCN)C(=O)N[C@@H](CCCCN)C(=O)N[C@H](C(=O)O)C(C)C)C(C)C)C(C)C)C(C)C)C(C)C [FLGVVFKKASKVFPAVFKKV]

MIC (Bacillus cereus): 3.66 µM (≈ 8 µg/mL)
MIC (Escherichia coli): 117 µM (≈ 256 µg/mL)
MIC (Staphylococcus aureus): 3.66 µM (≈ 8 µg/mL)
SMILES: CC(C)C[C@H](NC(=O)[C@H](CCCCN)NC(=O)[C@H](Cc1ccccc1)NC(=O)[C@@H](NC(=O)[C@@H](NC(=O)CNC(=O)[C@H](CC(C)C)NC(=O)[C@@H](N)Cc1ccccc1)C(C)C)C(C)C)C(=O)N[C@@H](C)C(=O)N[C@@H](CO)C(=O)N[C@@H](CCCCN)C(=O)N[C@H](C(=O)N[C@@H](Cc1ccccc1)C(=O)NCC(=O)N[C@@H](C)C(=O)N[C@H](C(=O)N[C@@H](Cc1ccccc1)C(=O)N[C@@H](CCCCN)C(=O)N[C@@H](CCCCN)C(=O)N[C@H](C(=O)O)C(C)C)C(C)C)C(C)C [FLGVVFKLASKVFGAVFKKV]

MIC [3]: 1.3 µM (≈ 4.1 µg/mL)
MIC [4]: 2.61 µM (≈ 8.2 µg/mL)
MIC [5]: 1.3 µM (≈ 4.1 µg/mL)
MIC [6]: 1.3 µM (≈ 4.1 µg/mL)
SMILES: CC[C@H](C)[C@@H]1NC(=O)[C@H](CCCCN)NC(=O)[C@@H](NC(=O)[C@H](CCCCN)NC(=O)[C@H](CC(C)C)NC(=O)[C@H](CC(N)=O)NC(=O)[C@H](CC(=O)O)NC(=O)[C@H](CC(C)C)NC(=O)[C@H](CC(C)C)NC(=O)[C@@H](NC(=O)[C@@H](NC(=O)[C@H](CC(=O)O)NC(=O)[C@H](CCSC)NC(=O)[C@H](CC(N)=O)NC(=O)[C@H](CCCCN)NC(=O)[C@H](C)NC(=O)[C@@H](NC(=O)[C@H](CC(N)=O)NC(=O)[C@H](CCCCN)NC(=O)[C@H](C)NC(=O)[C@@H](NC(=O)[C@H](C)NC(=O)[C@H](CCSC)NC(=O)[C@H](Cc2ccccc2)NC(=O)CN)[C@@H](C)O)C(C)C)C(C)C)[C@@H](C)O)CSSC[C@@H](C(=O)O)NC(=O)[C@H](C)NC(=O)[C@H](CCCCN)NC(=O)[C@H]([C@@H](C)O)NC1=O [GFMATAKNVAKNMDVTLLDNLKCKITKAC]

MIC [3]: 2.02 µM (≈ 6.3 µg/mL)
MIC [4]: 4.05 µM (≈ 12.6 µg/mL)
MIC [5]: 4.05 µM (≈ 12.6 µg/mL)
MIC [6]: 2.02 µM (≈ 6.3 µg/mL)
SMILES: CC[C@H](C)[C@@H]1NC(=O)[C@H](CCCCN)NC(=O)[C@@H](NC(=O)[C@H](CCCCN)NC(=O)[C@H](CC(C)C)NC(=O)[C@H](CC(N)=O)NC(=O)[C@H](CC(=O)O)NC(=O)[C@H](CC(C)C)NC(=O)[C@H](CC(C)C)NC(=O)[C@H](CC(N)=O)NC(=O)CNC(=O)[C@H](C)NC(=O)[C@H](CCC(=O)O)NC(=O)[C@H](CC(N)=O)NC(=O)[C@H](CCCCN)NC(=O)[C@H](C)NC(=O)[C@@H](NC(=O)[C@H](CC(N)=O)NC(=O)[C@H](CCCCN)NC(=O)[C@H](C)NC(=O)[C@@H](NC(=O)[C@H](CC(=O)O)NC(=O)[C@H](CCSC)NC(=O)[C@H](Cc2ccccc2)NC(=O)CN)[C@@H](C)O)C(C)C)CSSC[C@@H](C(=O)O)NC(=O)[C@H](C)NC(=O)[C@H](CCCCN)NC(=O)[C@H]([C@@H](C)O)NC1=O [GFMDTAKNVAKNEAGNLLDNLKCKITKAC]

MIC [3]: 3.06 µM (≈ 10.3 µg/mL)
MIC [4]: 6.12 µM (≈ 20.6 µg/mL)
MIC [5]: 12.2 µM (≈ 41.2 µg/mL)
MIC [6]: 6.12 µM (≈ 20.6 µg/mL)
SMILES: CC[C@H](C)[C@H](NC(=O)[C@H](CC(C)C)NC(=O)CN)C(=O)N[C@@H](CC(=O)O)C(=O)N[C@H](C(=O)N[C@H](C(=O)N[C@@H](CCCCN)C(=O)N[C@@H](CC(N)=O)C(=O)N[C@@H](CCSC)C(=O)N[C@@H](C)C(=O)N[C@@H](CC(C)C)C(=O)N[C@@H](CC(N)=O)C(=O)N[C@@H](C)C(=O)N[C@@H](C)C(=O)N[C@@H](CCCCN)C(=O)N[C@@H](CO)C(=O)N[C@@H](C)C(=O)NCC(=O)N[C@H](C(=O)N[C@@H](CO)C(=O)N[C@H](C(=O)N[C@@H](CC(C)C)C(=O)N[C@@H](CC(N)=O)C(=O)N[C@H](C(=O)N[C@@H](CC(C)C)C(=O)N[C@@H](CO)C(=O)N[C@H]1CSSC[C@@H](C(=O)O)NC(=O)[C@H]([C@@H](C)O)NC(=O)[C@H](CCCCN)NC(=O)[C@H](CO)NC(=O)[C@H](CC(C)C)NC(=O)[C@H](CCCCN)NC1=O)[C@@H](C)O)C(C)C)C(C)C)[C@@H](C)CC)[C@@H](C)O [GLIDTIKNMALNAAKSAGVSVLNTLSCKLSKTC]

MIC [3]: 3.4 µM (≈ 11.2 µg/mL)
MIC [4]: 3.4 µM (≈ 11.2 µg/mL)
MIC [5]: 13.6 µM (≈ 44.8 µg/mL)
MIC [6]: 6.81 µM (≈ 22.4 µg/mL)
SMILES: CC[C@H](C)[C@H](NC(=O)[C@H](CC(C)C)NC(=O)[C@H](CC(C)C)NC(=O)[C@H](CC(N)=O)NC(=O)[C@H](CCCCN)NC(=O)[C@@H](NC(=O)[C@@H](NC(=O)[C@H](C)NC(=O)[C@H](CC(C)C)NC(=O)[C@@H](NC(=O)CN)C(C)C)[C@@H](C)O)C(C)C)C(=O)NCC(=O)N[C@H](C(=O)NCC(=O)N[C@@H](CC(=O)O)C(=O)NCC(=O)N[C@@H](C)C(=O)N[C@@H](C)C(=O)N[C@@H](CCC(N)=O)C(=O)N[C@@H](CO)C(=O)N[C@H](C(=O)N[C@@H](CC(C)C)C(=O)N[C@@H](CCCCN)C(=O)N[C@H](C(=O)N[C@@H](CC(C)C)C(=O)N[C@@H](CO)C(=O)N[C@H]1CSSC[C@@H](C(=O)O)NC(=O)[C@H](CC(=O)O)NC(=O)[C@H](CC(N)=O)NC(=O)[C@H](CO)NC(=O)[C@H](CC(C)C)NC(=O)[C@H](CCCCN)NC1=O)[C@@H](C)O)C(C)C)[C@@H](C)O [GVLATVKNLLIGTGDGAAQSVLKTLSCKLSNDC]

MIC [7]: 2 µM (≈ 4.26 µg/mL)
MIC (Escherichia coli UB1005): 4 µM (≈ 8.53 µg/mL)
MIC [8]: 4 µM (≈ 8.53 µg/mL)
MIC [9]: 4 µM (≈ 8.53 µg/mL)
MIC [10]: 4 µM (≈ 8.53 µg/mL)
MIC [11]: 2 µM (≈ 4.26 µg/mL)
MIC [12]: 2 µM (≈ 4.26 µg/mL)
SMILES: CC[C@H](C)[C@H](NC(=O)[C@H](CCCCN)NC(=O)[C@H](CCCCN)NC(=O)[C@H](Cc1ccccc1)NC(=O)[C@H](CC(C)C)NC(=O)[C@H](CCCCN)NC(=O)[C@H](Cc1c[nH]c2ccccc12)NC(=O)[C@@H](N)CCCCN)C(=O)N[C@@H](Cc1c[nH]c2ccccc12)C(=O)N[C@@H](Cc1c[nH]c2ccccc12)C(=O)N1CCC[C@H]1C(=O)N[C@@H](Cc1ccccc1)C(=O)N[C@@H](CC(C)C)C(=O)N[C@@H](CCCN=C(N)N)C(=O)N[C@@H](CCCN=C(N)N)C(N)=O [KWKLFKKIWWPFLRR]

MIC (Bacillus subtilis 168): 7 µM (≈ 13.1 µg/mL)
SMILES: CC[C@H](C)[C@H](NC(=O)[C@H](CS)NC(=O)[C@H](CCSC)NC(=O)[C@H](CS)NC(=O)[C@H](CCCN=C(N)N)NC(=O)[C@@H](N)CC(C)C)C(=O)N[C@@H](CCCCN)C(=O)N[C@@H](Cc1c[nH]c2ccccc12)C(=O)N[C@@H](Cc1c[nH]c2ccccc12)C(=O)N[C@@H](CO)C(=O)NCC(=O)N[C@@H](CCCCN)C(=O)N[C@@H](Cc1cnc[nH]1)C(=O)N1CCC[C@H]1C(=O)N[C@@H](CCCCN)C(=O)O [LRCMCIKWWSGKHPK]

MIC [4]: > 128 µM
MIC (Escherichia coli UB1005): ≥ 128 µM
MIC [11]: ≥ 128 µM
MIC [6]: > 128 µM
MIC [13]: > 128 µM
MIC [12]: > 128 µM
SMILES: CC[C@H](C)[C@H](NC(=O)[C@@H]1CCCN1C(=O)[C@@H]1CCCN1)C(=O)N[C@H](C(=O)NCC(=O)N[C@@H](CO)C(=O)N[C@H](C(=O)N1CCC[C@H]1C(=O)N[C@@H](CC(C)C)C(=O)NCC(=O)N[C@@H](CS)C(=O)NCC(N)=O)[C@@H](C)CC)C(C)C [PPIVGSIPLGCG]
